Values joined by “and” are separate entries in the source; they are usually repeats but may differ in a detail not shown here. Equal values may be shown once. Toxic doses and inconclusive results are not listed.
System: B6C3F1 mice, B16 melanoma ip, median survival T/C
Experiment: NCI In Vivo Anticancer Drug Screen. Data for tumor model B16 Melanoma (intraperitoneal) in B6C3F1 mice
Settings: endpoint: median survival time, higher = longer survival
How it was run: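 Mice bearing transplanted tumor were dosed with compound or vehicle, and survival was recorded. Activity is expressed as the treated-group measurement (T) divided by the vehicle control measurement (C).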

[1] = dose: 25.0 mg/kg/injection, schedule: Q01DX009 (ip), vehicle: saline
[2] = dose: 50.0 mg/kg/injection, schedule: Q01DX009 (ip), vehicle: saline
[3] = dose: 75.0 mg/kg/injection, schedule: Q01DX009 (ip), vehicle: saline
[4] = dose: 100.0 mg/kg/injection, schedule: Q01DX009 (ip), vehicle: saline
[5] = dose: 150.0 mg/kg/injection, schedule: Q01DX009 (ip), vehicle: saline
[6] = dose: 12.5 mg/kg/injection, schedule: Q01DX009 (ip), vehicle: saline with Tween-80
[7] = dose: 25.0 mg/kg/injection, schedule: Q01DX009 (ip), vehicle: saline with Tween-80
[8] = dose: 50.0 mg/kg/injection, schedule: Q01DX009 (ip), vehicle: saline with Tween-80
[9] = dose: 100.0 mg/kg/injection, schedule: Q01DX009 (ip), vehicle: saline with Tween-80
[10] = dose: 200.0 mg/kg/injection, schedule: Q01DX009 (ip), vehicle: saline with Tween-80
[11] = dose: 1.56 mg/kg/injection, schedule: Q01DX009 (ip), vehicle: saline
[12] = dose: 3.12 mg/kg/injection, schedule: Q01DX009 (ip), vehicle: saline
[13] = dose: 6.25 mg/kg/injection, schedule: Q01DX009 (ip), vehicle: saline
[14] = dose: 12.5 mg/kg/injection, schedule: Q01DX009 (ip), vehicle: saline

SMILES: CCCCCC[C@@H](O)C/C=C\CCCCCCCC(=O)OCCO
- T/C [1]: 101 % of control
- T/C [2]: 110 % of control
- T/C [3]: 102 % of control
- T/C [4]: 122 % of control
- T/C [5]: 97 % of control
- T/C (dose: 200.0 mg/kg/injection, schedule: Q01DX009 (ip), vehicle: saline): 101 % of control
- T/C (dose: 300.0 mg/kg/injection, schedule: Q01DX009 (ip), vehicle: saline): 100 % of control
- T/C (dose: 400.0 mg/kg/injection, schedule: Q01DX009 (ip), vehicle: saline): 103 % of control
- T/C (dose: 600.0 mg/kg/injection, schedule: Q01DX009 (ip), vehicle: saline): 95 % of control
- T/C (dose: 800.0 mg/kg/injection, schedule: Q01DX009 (ip), vehicle: saline): 96 % of control
- T/C (dose: 1200.0 mg/kg/injection, schedule: Q01DX009 (ip), vehicle: saline): 96 % of control

SMILES: CC(=O)OC1(C)CC(C)C(=O)C(C(O)CC2CC(=O)NC(=O)C2)C1 (centres undefined)
- T/C (dose: 15.6 micrograms/kg/injection, schedule: Q01DX009 (ip), vehicle: saline): 111 % of control
- T/C (dose: 31.3 micrograms/kg/injection, schedule: Q01DX009 (ip), vehicle: saline): 107 % of control
- T/C (dose: 62.5 micrograms/kg/injection, schedule: Q01DX009 (ip), vehicle: saline): 104 % of control
- T/C (dose: 125.0 micrograms/kg/injection, schedule: Q01DX009 (ip), vehicle: saline): 108 % of control
- T/C (dose: 250.0 micrograms/kg/injection, schedule: Q01DX009 (ip), vehicle: saline): 117 % of control

SMILES: CCCCNC(C)[C@]1(O)Cc2c(O)c3c(c(O)c2[C@@H](OC2CC(N)C(O)C(C)O2)C1)C(=O)c1c(OC)cccc1C3=O (some centres undefined)
- T/C (dose: 0.75 mg/kg/injection, schedule: Q01DX009 (ip), vehicle: saline): 162 % of control and 163 % of control
- T/C (dose: 1.5 mg/kg/injection, schedule: Q01DX009 (ip), vehicle: saline): 211 % of control and 232 % of control
- T/C (dose: 3.0 mg/kg/injection, schedule: Q01DX009 (ip), vehicle: saline): 235 % of control and 333 % of control
- T/C (dose: 6.0 mg/kg/injection, schedule: Q01DX009 (ip), vehicle: saline): 229 % of control and 95 % of control

SMILES: C=C1C(=O)OC2/C=C(\C)CC/C=C(/C)CC(OC(=O)/C(=C/CO)CO)C12 (centres undefined)
- T/C (dose: 10.0 mg/kg/injection, schedule: Q01DX009 (ip), vehicle: Klucel (hydroxypropylcellulose) (HPC)): 106 % of control
- T/C (dose: 20.0 mg/kg/injection, schedule: Q01DX009 (ip), vehicle: Klucel (hydroxypropylcellulose) (HPC)): 98 % of control
- T/C (dose: 40.0 mg/kg/injection, schedule: Q01DX009 (ip), vehicle: Klucel (hydroxypropylcellulose) (HPC)): 96 % of control

SMILES: CC1(CO)C(O)CCC2(C)C1CCC1CC3CC12CCC3(O)CO (centres undefined)
- T/C (dose: 10.0 mg/kg/injection, schedule: Q03HX027 (ip), vehicle: saline with Tween-80): 118 % of control
- T/C [6]: 116 % of control and 117 % of control
- T/C [7]: 119 % of control and 122 % of control
- T/C (dose: 30.0 mg/kg/injection, schedule: Q01DX005 (iv), vehicle: Klucel (hydroxypropylcellulose) (HPC)): 103 % of control
- T/C (dose: 40.0 mg/kg/injection, schedule: Q03HX027 (ip), vehicle: saline with Tween-80): 187 % of control and 202 % of control
- T/C (dose: 50.0 mg/kg/injection, schedule: Q01DX009 (ip), vehicle: distilled water + Tween-80): 179 % of control
- T/C [8]: 159 % of control
- T/C [2]: 109 % of control
- T/C (dose: 60.0 mg/kg/injection, schedule: Q01DX005 (iv), vehicle: Klucel (hydroxypropylcellulose) (HPC)): 95 % of control
- T/C (dose: 60.0 mg/kg/injection, schedule: Q01DX005 (oral), vehicle: Klucel (hydroxypropylcellulose) (HPC)): 106 % of control
- T/C [3]: 113 % of control
- T/C (dose: 80.0 mg/kg/injection, schedule: Q03HX027 (ip), vehicle: saline with Tween-80): 235 % of control
- T/C (dose: 100.0 mg/kg/injection, schedule: Q01DX009 (ip), vehicle: distilled water + Tween-80): 166 % of control
- T/C [9]: 162 % of control and 173 % of control and 187 % of control
- T/C [4]: 119 % of control
- T/C (dose: 120.0 mg/kg/injection, schedule: Q01DX005 (ip), vehicle: Klucel (hydroxypropylcellulose) (HPC)): 150 % of control
- T/C (dose: 120.0 mg/kg/injection, schedule: Q01DX005 (iv), vehicle: Klucel (hydroxypropylcellulose) (HPC)): 104 % of control
- T/C (dose: 120.0 mg/kg/injection, schedule: Q01DX005 (oral), vehicle: Klucel (hydroxypropylcellulose) (HPC)): 99 % of control
- T/C [5]: 161 % of control
- T/C (dose: 200.0 mg/kg/injection, schedule: Q01DX009 (ip), vehicle: distilled water + Tween-80): 201 % of control
- T/C [10]: 236 % of control
- T/C (dose: 240.0 mg/kg/injection, schedule: Q01DX005 (ip), vehicle: Klucel (hydroxypropylcellulose) (HPC)): 184 % of control
- T/C (dose: 240.0 mg/kg/injection, schedule: Q01DX005 (oral), vehicle: Klucel (hydroxypropylcellulose) (HPC)): 104 % of control
- T/C (dose: 480.0 mg/kg/injection, schedule: Q01DX005 (oral), vehicle: Klucel (hydroxypropylcellulose) (HPC)): 100 % of control

SMILES: CCOc1ncc([N+](=O)[O-])c(OCC)n1
- T/C [8]: 89 % of control and 106 % of control
- T/C [9]: 103 % of control
- T/C [10]: 91 % of control and 96 % of control

SMILES: CC[C@@]1(O)C[C@H](OC2CC(N(C)C)C(OC3CC(O)C(OC4CCC(=O)C(C)O4)C(C)O3)C(C)O2)c2c(cc3c(c2O)C(=O)c2c(O)cccc2C3=O)[C@H]1C(=O)OC (some centres undefined)
- T/C (dose: 3.0 mg/kg/injection, schedule: Q01DX009 (ip), vehicle: saline with Tween-80): 151 % of control

SMILES: COc1cc(C(=O)N/N=C/c2cccc([N+](=O)[O-])c2)cc(OC)c1OC
- T/C [6]: 88 % of control
- T/C [7]: 90 % of control

SMILES: Brc1c(NC2=NCCN2)ccc2nccnc12
- T/C [11]: 100 % of control
- T/C [12]: 96 % of control
- T/C [13]: 102 % of control
- T/C [14]: 94 % of control and 106 % of control
- T/C [1]: 109 % of control and 102 % of control
- T/C [2]: 112 % of control and 104 % of control

SMILES: C=COC(=O)N(C)C
- T/C [9]: 99 % of control
- T/C [10]: 97 % of control

SMILES: Cc1ccc(S(=O)(=O)OCCN(CCOS(=O)(=O)c2ccc(C)cc2)c2ccc(F)cc2)cc1
- T/C (dose: 3.12 mg/kg/injection, schedule: Q01DX009 (ip), vehicle: saline + alcohol): 109 % of control
- T/C (dose: 6.25 mg/kg/injection, schedule: Q01DX009 (ip), vehicle: saline + alcohol): 109 % of control
- T/C (dose: 12.5 mg/kg/injection, schedule: Q01DX009 (ip), vehicle: saline + alcohol): 108 % of control
- T/C (dose: 25.0 mg/kg/injection, schedule: Q01DX009 (ip), vehicle: saline + alcohol): 111 % of control
- T/C (dose: 50.0 mg/kg/injection, schedule: Q01DX009 (ip), vehicle: saline + alcohol): 108 % of control

SMILES: c1ccc(-c2nn(-c3ccccc3)[n+](-c3ccccc3-c3ccccc3)n2)cc1
- T/C (dose: 5.0 mg/kg/injection, schedule: Q01DX009 (ip), vehicle: saline): 108 % of control
- T/C (dose: 10.0 mg/kg/injection, schedule: Q01DX009 (ip), vehicle: saline): 99 % of control
- T/C (dose: 20.0 mg/kg/injection, schedule: Q01DX009 (ip), vehicle: saline): 101 % of control

SMILES: CC1=C(O)C(=O)[C@@H]2O[C@@H]2C1=O
- T/C (dose: 0.78 mg/kg/injection, schedule: Q01DX009 (ip), vehicle: saline): 87 % of control and 92 % of control
- T/C [11]: 91 % of control and 98 % of control
- T/C [12]: 103 % of control
- T/C (dose: 3.13 mg/kg/injection, schedule: Q01DX009 (ip), vehicle: saline): 107 % of control
- T/C [13]: 112 % of control and 94 % of control
- T/C [14]: 108 % of control and 106 % of control

SMILES: Cc1c(O)ccc(=O)n1O
- T/C (dose: 16.0 mg/kg/injection, schedule: Q01DX009 (ip), vehicle: saline with Tween-80): 101 % of control
- T/C (dose: 32.0 mg/kg/injection, schedule: Q01DX009 (ip), vehicle: saline with Tween-80): 98 % of control
- T/C (dose: 64.0 mg/kg/injection, schedule: Q01DX009 (ip), vehicle: saline with Tween-80): 101 % of control
- T/C (dose: 128.0 mg/kg/injection, schedule: Q01DX009 (ip), vehicle: saline with Tween-80): 104 % of control

SMILES: COc1cc2c(c(OC)c1O)-c1ccc(OC)c(=O)cc1[C@@H](NC(=O)C(F)(F)F)CC2
- T/C (dose: 0.62 mg/kg/injection, schedule: Q01DX009 (ip), vehicle: Klucel (hydroxypropylcellulose) (HPC)): 119 % of control
- T/C (dose: 0.63 mg/kg/injection, schedule: Q01DX009 (ip), vehicle: Klucel (hydroxypropylcellulose) (HPC)): 122 % of control
- T/C (dose: 1.25 mg/kg/injection, schedule: Q01DX009 (ip), vehicle: Klucel (hydroxypropylcellulose) (HPC)): 118 % of control
- T/C (dose: 2.5 mg/kg/injection, schedule: Q01DX009 (ip), vehicle: Klucel (hydroxypropylcellulose) (HPC)): 120 % of control
- T/C (dose: 4.17 mg/kg/injection, schedule: Q01DX009 (ip), vehicle: Klucel (hydroxypropylcellulose) (HPC)): 156 % of control
